Laboratory results taken from US20160256452A1 (Develco Pharma Schweiz AG, priority 2015, published 2016).
Where a name gives a salt, the structure may show the parent alone.

Columns and labels:
[1] = tested on: loperamide-induced experimental constipation; experiment: Oro-cecal transit time (OCT), sulfasalazine/sulfapyridine method, loperamide-induced experimental constipation; type: in vivo, human
Protocol: (§1) The clinical study was performed in 15 German white subjects (11 males, 4 females, age 20-34 years, body mass index 20.3-27.0 kg/ m^2). All subjects were in good health as confirmed by medical histories, physical examination, routine clinical-chemical and hematologic screenings and 12-lead ECG. Three female subjects took hormonal contraceptives regularly and one subject took 300 mg ibuprofen to treat headache 4 days before the administration of study medication. Three subjects were smokers of less than 10 cigarettes per day. 14 subjects drank alcohol occasionally. All were negative in the pre-study screenings for alcohol, drugs, hepatitis-B-virus (HBV) and hepatitis-C-virus (HCV) and human immunodeficiency virus (HIV). Before administration of the study medication, female subjects were screened to be not pregnant and to apply a safe method of contraception. […] All participants provided informed written consent before inclusion into the study. The study was approved by the Independent Ethics Committee of the University Medicine Greifswald and by the German Federal Institute for Drugs and Medical Devices (BfArM) and was registered by EudraCT (2009-014357-32) and ClinicalTrials.gov (NCT01596777).
(§2) Pharmacokinetics of methylnaltrexone and its effects on loperamid-induced experimental constipation were evaluated in a randomized, controlled, five-period, cross-over study with 7 days wash-out between the study periods. […] The time of methylnaltrexone administration was defined to be time zero. For control of intestinal transit times in absence of loperamide and methylnaltrexone, 200 ml of pure apple juice and a methylnaltrexone placebo capsule were given at the respective times (Control). […] Oro-cecal transit time (OCT) was assessed using the sulfasalazine/sulfapyridine method. For that, 500 mg immediate-release sulfasalazine (Azulfidine®, Pharmacia, Germany) were swallowed with 200 ml table water 2 h after administration of the respective methylnaltrexone study medication to avoid competitive interactions during absorption. The time of first appearance of sulfapyridine in serum was defined to be the OCT (cut-off: 100 μg/ml serum). Whole gut transit time (WGT) was evaluated using a radio-opaque marker method. For that, Colon Transit' capsules (Medical Instruments Corporation GmbH, Herford, Germany) were swallowed 24, 12 and 1 h before time zero using the 200 ml apple juice for loperamide dosing. Each capsule contains 10 radio-opaque markers of identical shape (e.g. triangles). A Colon Transit™ batch consists of capsules with markers of different shape (e.g. triangles, circles, rings etc.). Our subjects were willing and compliant for sampling stool in single portions immediately after feeling urge without suppressing defecation using tightly closable containers. Then, the number of radio-opaque markers with identical shape was counted in the stool portions after X-ray imaging (Philips Optimus, Philips Healthcare, Hamburg, Germany) using the Agfa PACS Workstation Impact-Version 5.2 (Agfa-Healthcare, Cologne, Germany). From the time of administration of the 3×10 radio-opaque markers (3 Colon Transit™ capsules) and the time of their appearance in different stool portions could be reliably concluded on WGT as described below. Colon transit time (CTT) was derived from the difference of WGT and OCT.
For supervised pretreatment with loperamide and Colon Transit™ (mouth checking) and for providing stool samples, the subjects visited the study unit. […]

[2] = tested on: loperamide-induced experimental constipation; experiment: Whole gut transit time (WGT), radio-opaque marker method, loperamide-induced experimental constipation; type: in vivo, human
Protocol: as §1, with “All” for “The clinical study was performed in 15 German white subjects (11 males, 4 females, age 20-34 years, body mass index 20.3-27.0 kg/ m^2). All”, “study.” for “study. The study was approved by the Independent Ethics Committee of the University Medicine Greifswald and by the German Federal Institute for Drugs and Medical Devices (BfArM) and was registered by EudraCT (2009-014357-32) and ClinicalTrials.gov (NCT01596777).”
as §2, with “Our subjects were willing and compliant for sampling stool in single portions immediately after feeling urge without suppressing defecation using tightly closable containers.” left out
Intestinal transit times: Oro-cecal transit time (OCT) was defined as the time span between oral administration of sulfasalazine (500 mg immediate-release tablet) and the appearance of its metabolite sulfapyridine in serum (cut-off=100 μg/ml) which is generated in the cecum by bacterial azo-reduction. Whole-gut transit time (WGT) was assessed by counting the radio-opaque markers with different shapes (Colon Transit™) in the feces according to formula (1) : […]
with δ1-3 as derived by formula (2):
[formula] • δt =mouth to stool transit time of markers type 1, 2, 3 • xi=number of markers type 1, 2, 3 counted at time ti • n=total number of stools

[3] = tested on: loperamide-induced experimental constipation; experiment: Colon transit time (CTT), difference of WGT and OCT, loperamide-induced experimental constipation; type: in vivo, human; settings: for colon transit time after pre-treatment with loperamide: all 15 subjects
Protocol: as §2
The CTT was evaluated from the difference of WGT and OCT.

[4] = cited from earlier work
[5] = 12 LOP-responders, Control versus LOP
[6] = 12 LOP-responders, Control versus LOP, range
[7] = mean ± SD, 12 LOP-responders, loperamide 4 mg 24, 12, 1 h before and 12 h after placebo capsules

Compound: CN(C)C(=O)C(CCN1CCC(O)(c2ccc(Cl)cc2)CC1)(c1ccccc1)c1ccccc1 [LOP, loperamide hydrochloride]
- prolongation of the OCT (mean ± SD) [1, 5]: 3.08 ± 3.30 h
- prolongation of the OCT (range) [1, 6]: 0.50 to 10.5 h
- OCT after pre-treatment with loperamide (mean ± SD) ([1]; all 15 subjects): 7.4 ± 3.7 h
- OCT after pre-treatment with loperamide (range) ([1]; all 15 subjects, range): 4.0 to 14.0 h
- OCT [1, 7]: 7.00 ± 3.55 h
- WGT extended by (mean ± SD) [2, 5]: 37.8 ± 19.1 h
- WGT extended by (range) [2, 6]: 20.6 to 74.1 h
- WGT after pre-treatment with loperamide (mean ± SD) ([2]; all 15 subjects): 73.4 ± 19.9 h
- WGT elevation versus Control ([2]; all 15 subjects): about 1.8 fold
- WGT after pre-treatment with loperamide (range) ([2]; all 15 subjects, range): 45.9 to 114 h
- WGT [2, 7]: 77.3 ± 19.6 h
- prolongation of the CTT (mean ± SD) [3, 5]: 34.8 ± 18.3 h
- prolongation of the CTT (range) [3, 6]: 18.3 to 73.6 h
- colon transit time after pre-treatment with loperamide [3]: 66.0 ± 20.9 h
- colon transit time after pre-treatment with loperamide ([3]; range): 33.9 to 110 h
- CTT [3, 7]: 70.3 ± 19.4 h

Compound: C[N@+]1(CC2CC2)CC[C@]23c4c5ccc(O)c4O[C@H]2C(=O)CC[C@@]3(O)[C@H]1C5 [methylnaltrexone, N-methylnaltrexone bromide]
- time of peak concentrations ([4]; following subcutaneous administration): approximately 0.5 hours
- crossing of the human blood-brain barrier ([4]; in vivo): does not cross
- eliminated without being metabolised ([4]; in vivo): 85 % of the administered dose
- proportion that binds to plasma proteins ([4]; in vivo): 11-15%
- steady-state volume of distribution ([4]; in vivo): 1.1 L/kg
- terminal half-life ([4]; in vivo): about 8 hours
- Accumulation ([4]; intravenous administration every 6 hours): has not been observed
- excreted in urine ([4]; share of the dose): Approximately half of the dose
